Results published in publication PMC7170309, “Imidazopyridine-fused [1,3]diazepinones: modulations of positions 2 to 4 and their impacts on the anti-melanoma activity” (Journal of Enzyme Inhibition and Medicinal Chemistry, 2020).

Experiments:
Assay type in all cases: cell-based, human
[1] = test system: A549/ATCC; test: NCI-60 SRB assay, A549/ATCC (NSCLC); details: 10 µM, 48 h; for G%: growth vs untreated control
Procedure: (§1) Primary anticancer assay was performed on a panel of 60 human cancer cell lines derived from nine neoplastic diseases, in accordance with the protocol of the Drug Evaluation Branch, National Cancer Institute, Bethesda, Maryland, USA[22]. Cells were incubated with tested compounds at 10 µM for 48 h. The growth percentage was evaluated spectrophotometrically using a protein binding dye, SRB. Results for each tested compound were reported as the percent of growth of treated cells when compared to untreated control cells.
(§2) To better compare the activity profile of these two series of compounds, compounds 5 and 8 were selected and then evaluated towards a panel of sixty cancer cell lines corresponding to nine different cancer types, i.e. leukaemia, melanoma, as well as lung, colon, central nervous system, ovarian, renal, prostate and breast cancers (NCI evaluation). Indeed, it is now well established that the growth inhibitory patterns of anticancer drugs against the NCI-60 cell line panel correlated well with their modes of action. For example, compounds that bind to tubulin have similar growth inhibition patterns regardless of which site on tubulin they bind[30]. […] Compounds were tested using the sulforhodamine B (SRB) assay that provides a direct cell density index. The amount of dye incorporated by the cells increases with the increase of the total protein biomass. Cells were incubated for 48 h with compounds at 10 µM concentration, then cell growth was evaluated spectrophotometrically and presented as the percent of untreated control cells. Values of the most sensitive cell lines were compared to those obtained with JMV5038 (Figure 4, for all data see SI).

[2] = test system: EKVX; test: NCI-60 SRB assay, EKVX (NSCLC); details: 10 µM, 48 h
Procedure: as §1, §2

[3] = test system: HOP-92; test: NCI-60 SRB assay, HOP-92 (NSCLC); details: 10 µM, 48 h; for G%: growth vs untreated control;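 on Mean G% - G%: mean growth across the NCI-60 panel minus this line's growth with positive meaning more sensitive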
Procedure: as §1, §2

[4] = test system: NCI-H23; test: NCI-60 SRB assay, NCI-H23 (NSCLC); details: 10 µM, 48 h; for G%: growth vs untreated control
Procedure: as §1, §2

[5] = test system: NCI-H460; test: NCI-60 SRB assay, NCI-H460 (NSCLC); details: 10 µM, 48 h; for G%: growth vs untreated control
Procedure: as §1, §2

[6] = test system: NCI-H522; test: NCI-60 SRB assay, NCI-H522 (NSCLC); details: 10 µM, 48 h; for G%: growth vs untreated control
Procedure: as §1, §2

[7] = test system: HCC-2998; test: NCI-60 SRB assay, HCC-2998 (Colon Cancer); details: 10 µM, 48 h; for G%: growth vs untreated control;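 on Mean G% - G%: mean growth across the NCI-60 panel minus this line's growth with positive meaning more sensitive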
Procedure: as §1, §2

[8] = test system: HT29; test: NCI-60 SRB assay, HT29 (Colon Cancer); details: 10 µM, 48 h; for G%: growth vs untreated control;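 on Mean G% - G%: mean growth across the NCI-60 panel minus this line's growth with positive meaning more sensitive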
Procedure: as §1, §2

[9] = test system: SW-620; test: NCI-60 SRB assay, SW-620 (Colon Cancer); details: 10 µM, 48 h; for G%: growth vs untreated control
Procedure: as §1, §2

[10] = test system: SF-268; test: NCI-60 SRB assay, SF-268 (CNS Cancer); details: 10 µM, 48 h; for G%: growth vs untreated control
Procedure: as §1, §2

[11] = test system: SF-539; test: NCI-60 SRB assay, SF-539 (CNS Cancer); details: 10 µM, 48 h; for G%: growth vs untreated control
Procedure: as §1, §2

[12] = test system: SNB-75; test: NCI-60 SRB assay, SNB-75 (CNS Cancer); details: 10 µM, 48 h; for G%: growth vs untreated control
Procedure: as §1, §2

[13] = test system: LOX IMVI; test: NCI-60 SRB assay, LOX IMVI (Melanoma); details: 10 µM, 48 h; for G%: growth vs untreated control
Procedure: as §1, §2

[14] = test system: MALME-3M; test: NCI-60 SRB assay, MALME-3M (Melanoma); details: 10 µM, 48 h; for G%: growth vs untreated control
Procedure: as §1, §2

[15] = test system: MDA-MB-435; test: NCI-60 SRB assay, MDA-MB-435 (Melanoma); details: MDA-MB-435, 10 µM, 48 h, SRB; for G%: growth vs untreated control;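 on Mean G% - G%: mean growth across the NCI-60 panel minus this line's growth with positive meaning more sensitive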
Procedure: as §1, §2

[16] = test system: SK-MEL-2; test: NCI-60 SRB assay, SK-MEL-2 (Melanoma); details: 10 µM, 48 h; for G%: growth vs untreated control
Procedure: as §1, §2

[17] = test system: SK-MEL-5; test: NCI-60 SRB assay, SK-MEL-5 (Melanoma); details: 10 µM, 48 h; for G%: growth vs untreated control
Procedure: as §1, §2

[18] = test system: IGROV1; test: NCI-60 SRB assay, IGROV1 (Ovarian Cancer); details: 10 µM, 48 h; for G%: growth vs untreated control
Procedure: as §1, §2

[19] = test system: OVCAR-3; test: NCI-60 SRB assay, OVCAR-3 (Ovarian Cancer); details: 10 µM, 48 h; for G%: growth vs untreated control
Procedure: as §1, §2

[20] = test system: OVCAR-4; test: NCI-60 SRB assay, OVCAR-4 (Ovarian Cancer); details: 10 µM, 48 h; for G%: growth vs untreated control
Procedure: as §1, §2

[21] = test system: NCI/ADR-RES; test: NCI-60 SRB assay, NCI/ADR-RES (Ovarian Cancer); details: 10 µM, 48 h; for G%: growth vs untreated control
Procedure: as §1, §2

[22] = test system: TK-10; test: NCI-60 SRB assay, TK-10 (Renal Cancer); details: 10 µM, 48 h; for G%: growth vs untreated control
Procedure: as §1, §2

[23] = test system: UO-31; test: NCI-60 SRB assay, UO-31 (Renal Cancer); details: 10 µM, 48 h; for G%: growth vs untreated control
Procedure: as §1, §2

[24] = test system: DU-145; test: NCI-60 SRB assay, DU-145 (Prostate Cancer); details: 10 µM, 48 h; for G%: growth vs untreated control
Procedure: as §1, §2

[25] = test system: MCF7; test: NCI-60 SRB assay, MCF7 (Breast Cancer); details: 10 µM, 48 h; for G%: growth vs untreated control
Procedure: as §1, §2

[26] = test system: MDA-MB-468; test: NCI-60 SRB assay, MDA-MB-468 (Breast Cancer); details: 10 µM, 48 h; for G%: growth vs untreated control
Procedure: as §1, §2

[27] = test system: MDA-MB-435 cells; test: Immunofluorescent staining for actin localisation (confocal microscopy); details: 5 µM, 20 h
Procedure: To evaluate the effect of compound treatment on cell morphology and stress actin fibres, an immunofluorescence imaging of cells was performed as previously described. MDA-MB-435 cells were seeded on cover slips in petri dishes and allowed to grow for 24 h. After cell growth, cells were treated with the vehicule (control cells) or with JMV5038, compound 5 or 8 at 5 µM for 20 h. Then cells were fixed using Antigenfix for 20 min and permeabilized using 0.2% Triton X-100 for 4 min at room temperature. Actin was stained using a primary human anti-actin antibody (made from mouse) and a secondary Alexa Fluor 568-conjugated goat anti-mouse antibody. Both of them were incubated 1 h at room temperature. Nuclei were counter-stained using Hoechst 33342. Representative images were obtained using a Zeiss LSM 780 inverted confocal microscopy. Confocal fluorescence microscopy was performed on fixed cells under a 543 nm wavelength excitation for AlexaFluor568, and 405 nm for nuclei, and visualised at 620 nm (red) and 450 nm (blue) respectively.
In our previous study, we reported that JMV5038 led to changes in the cell morphology, concomitant with a disruption of the actin network. Morphological changes in MDA-MB-435 cells induced by compounds 5 or 8 were investigated and compared to those induced by JMV5038. For this purpose, fixed and actin immunostained MDA-MB-435 cells were imaged by confocal microscopy (Figure 6). Control cells treated with DMSO (20 h, 5 µM concentration) were spread and the tensile forces of actin stress fibres stretched the cell-adhesive phenotype.

With `[N-]=[N+]=NCCCC[C@@H]1NC(c2ccc(Br)cc2)=Nc2nc3ccccn3c2C1=O` [Compound 16, (4S)-4-(4-azidobutyl)-2-(4-bromophenyl)-3,4-dihydro-5H-pyrido[1’,2’:1,2]imidazo[4,5-d][1,3]diazepin-5-one] the “Mean G% - G%” value [1] was 16,61%, the G% [1] was 75,16% and the “Mean G% - G%” value [2] was 12,19%. The G% ([2]; growth vs untreated control) was 79,58%, the “Mean G% - G%” value [3] was -11,05% and the G% [3] was 102,82%. The “Mean G% - G%” value [4] was -7,34%, the G% [4] was 99,11% and the “Mean G% - G%” value [5] was 0,98%. For the same compound, the G% [5] was 90,79%, the “Mean G% - G%” value [6] was 7,01% and the G% [6] was 84,76%. For the same compound, the “Mean G% - G%” value [7] was -20,61%, the G% [7] was 112,38% and the “Mean G% - G%” value [8] was -14,13%. The G% [8] was 105,90%, the “Mean G% - G%” value [9] was -0,19% and the G% [9] was 91,96%. For the same compound, the “Mean G% - G%” value [10] was 1,04%, the G% [10] was 90,73% and the “Mean G% - G%” value [11] was -6,24%. For the same compound, the G% [11] was 98,01%, the “Mean G% - G%” value [12] was 4,12% and the G% [12] was 87,65%. For the same compound, the “Mean G% - G%” value [13] was 5,56%, the G% [13] was 86,21% and the “Mean G% - G%” value [14] was -22,73%. For the same compound, the G% [14] was 114,50%, the “Mean G% - G%” value [15] was -13,77% and the G% [15] was 105,54%. For the same compound, the “Mean G% - G%” value [16] was -16,61%, the G% [16] was 108,38% and the “Mean G% - G%” value [17] was 3,83%. For the same compound, the G% [17] was 87,94%, the “Mean G% - G%” value [18] was 70,16% and the G% [18] was 21,61%. For the same compound, the “Mean G% - G%” value [19] was -11,51%, the G% [19] was 103,28% and the “Mean G% - G%” value [20] was -2,91%. The G% [20] was 94,68%, the “Mean G% - G%” value [21] was -9,49% and the G% [21] was 101,26%. The “Mean G% - G%” value [22] was -38,14%, the G% [22] was 129,91% and the “Mean G% - G%” value [23] was 27,99%. For the same compound, the G% [23] was 63,78%, the “Mean G% - G%” value [24] was -10,18% and the G% [24] was 101,95%. For the same compound, the “Mean G% - G%” value [25] was 11,80%, the G% [25] was 79,97% and the “Mean G% - G%” value [26] was -6,46%. For the same compound, the G% [26] was 98,23%.

For `C[C@@H]1NC(c2ccc(Br)cc2)=Nc2nc3ccccn3c2C1=O` [JMV5038], the “morphological changes / actin network” value [27] was “disorganisation of the actin cytoskeleton”, the “Mean G% - G%” value [1] was -0,42% and the G% [1] was 54,66%. For the same compound, the “Mean G% - G%” value [3] was -5,24%, the G% [3] was 59,48% and the “Mean G% - G%” value [4] was 0,57%. The G% [4] was 53,67%, the “Mean G% - G%” value [5] was 21,74% and the G% [5] was 32,50%. For the same compound, the “Mean G% - G%” value [6] was 19,43%, the G% [6] was 34,81% and the “Mean G% - G%” value [7] was -14,80%. The G% [7] was 69,04%, the “Mean G% - G%” value [8] was 36,72% and the G% [8] was 17,52%. The “Mean G% - G%” value [9] was 16,28%, the G% [9] was 37,96% and the “Mean G% - G%” value [10] was -29,20%. For the same compound, the G% [10] was 83,44%, the “Mean G% - G%” value [11] was -20,40% and the G% [11] was 74,64%. For the same compound, the “Mean G% - G%” value [12] was 4,08%, the G% [12] was 50,16% and the “Mean G% - G%” value [13] was 1,80%. The G% [13] was 52,44%, the “Mean G% - G%” value [14] was 2,49% and the G% [14] was 51,75%. For the same compound, the “Mean G% - G%” value [15] was 67,26%, the G% [15] was -13,02% and the “Mean G% - G%” value [16] was 6,87%. For the same compound, the G% [16] was 47,37%, the “Mean G% - G%” value [17] was 22,34% and the G% [17] was 31,90%. The “Mean G% - G%” value [18] was 11,16%, the G% [18] was 43,08% and the “Mean G% - G%” value [19] was 36,95%. The G% [19] was 17,29%, the “Mean G% - G%” value [20] was -23,22% and the G% [20] was 77,46%. For the same compound, the “Mean G% - G%” value [21] was 14,87%, the G% [21] was 39,37% and the “Mean G% - G%” value [22] was -55,42%. The G% [22] was 109,66%, the “Mean G% - G%” value [23] was -7,77% and the G% [23] was 62,01%. The “Mean G% - G%” value [24] was -33,50%, the G% [24] was 87,74% and the “Mean G% - G%” value [25] was 33,29%. The G% [25] was 20,95%, the “Mean G% - G%” value [26] was 54,74% and the G% [26] was -0,50%.
